pIC50: −log10 of the molar value.

A word on the pIC50: it is the IC50 on a negative log10 scale, so that one unit is a factor of ten.

Chain of activated ERK2 (P28482 whole entry): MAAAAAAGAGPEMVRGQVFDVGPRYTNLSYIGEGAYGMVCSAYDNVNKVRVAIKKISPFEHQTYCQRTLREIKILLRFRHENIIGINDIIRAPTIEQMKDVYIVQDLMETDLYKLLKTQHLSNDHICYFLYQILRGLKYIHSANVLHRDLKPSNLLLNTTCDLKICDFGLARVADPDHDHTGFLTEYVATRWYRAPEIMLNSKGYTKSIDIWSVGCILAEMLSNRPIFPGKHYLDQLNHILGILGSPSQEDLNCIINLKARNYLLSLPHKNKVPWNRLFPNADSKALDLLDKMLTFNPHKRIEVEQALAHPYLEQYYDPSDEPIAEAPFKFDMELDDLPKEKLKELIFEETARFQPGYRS

For this experiment, the target named is activated ERK2 (Homo sapiens (Human), UniProt P28482). Put plainly: Activated ERK2 kinase assay (AlphaScreen, ERKtide peptide phosphorylation). The settings on record: […] ERK2, 200 nM ERKtide peptide, 35 μM ATP, 30 min preincubation; read-out: ERK2 IC50. The class given is biochemical. The source says: Production of Activated ERK2 Protein:
Activated ERK2 protein was generated in insect cells by co-expression with a constitutively active form of MEK1. The ERK2 protein was expressed and purified as a nHis-PreScission-ERK2 tagged protein and then proteolytically processed to the full-length wild-type protein. […] Double-phosphorylated ERK2 protein was purified from the mixture by mono-Q column separation.
Activated ERK2 Kinase Assay:
A 16-point, half-log dilution series of compounds at 41× final concentration was used for generating IC50 curves. Compound dilution series were prepared in 100% DMSO. ERK2 was preincubated with compounds for 30 minutes at ambient temperature. Reaction was initiated by addition of a substrate cocktail of ERKtide peptide and ATP and was allowed to proceed for 2-3 hours at ambient temperature. Reaction was terminated by addition of 10 μL of a 2× stop buffer consisting of 100 mM Tris-Cl [pH 7.5], 25 mM EDTA, 0.01% Tween 20, 10 μg/mL of AlphaScreen Protein A Acceptor Beads, 10 μg/mL of Streptavidin Donor Beads (PerkinElmer, Waltham, Mass.), and 1.4 μg/mL phospho-EGF Receptor (Thr669) antibody (Cat #3056, Cell Signaling Technology, Danvers, Mass.). Terminated reactions were read, after overnight incubation in the dark, on an EnVision Multilabel Plate Reader (PerkinElmer, Waltham, Mass.), with excitation and emission wavelengths set to 680 nm and 570 nm, respectively. IC50 values were determined using a four-parameter fit.
Consider `CC1(C)c2cnc(N[C@H]3CC[C@H](O)CC3)nc2CN1C(=O)N[C@H](CO)c1ccccc1` [compound 60, N-((S)-2-hydroxy-1-phenylethyl)-2-(((1r,4S)-4-hydroxycyclohexyl)amino)-5,5-dimethyl-5H-pyrrolo[3,4-d]pyrimidine-6(7H)-carboxamide], for which the negative logarithm of the IC50 (pIC50) was 7.09.
For `CN1CCC(Nc2ncc3c(n2)CN(C(=O)N[C@H](CO)c2ccccc2)C3(C)C)CC1` [compound 61, (S)-N-(2-hydroxy-1-phenylethyl)-5,5-dimethyl-2-((1-methylpiperidin-4-yl)amino)-5H-pyrrolo[3,4-d]pyrimidine-6(7H)-carboxamide], the negative logarithm of the IC50 (pIC50) is 4.68.
Take `CC1(C)c2cnc(N[C@H]3CC[C@@H](O)CC3)nc2CN1C(=O)N[C@H](CO)c1ccccc1` [compound 62, N-((S)-2-hydroxy-1-phenylethyl)-2-(((1s,4R)-4-hydroxycyclohexyl)amino)-5,5-dimethyl-5H-pyrrolo[3,4-d]pyrimidine-6(7H)-carboxamide]: the negative logarithm of the IC50 (pIC50) is 6.05.
For `CC(=O)N1CC[C@H](Nc2ncc3c(n2)CN(C(=O)N[C@H](CO)c2ccccc2)C3(C)C)C1` [compound 63, 2-(((S)-1-acetylpyrrolidin-3-yl)amino)-N-((S)-2-hydroxy-1-phenylethyl)-5,5-dimethyl-5H-pyrrolo[3,4-d]pyrimidine-6(7H)-carboxamide] the value was 5.45; for `CC(=O)N1CC[C@@H](Nc2ncc3c(n2)CN(C(=O)N[C@H](CO)c2ccccc2)C3(C)C)C1` [compound 64, 2-(((R)-1-acetylpyrrolidin-3-yl)amino)-N-((S)-2-hydroxy-1-phenylethyl)-5,5-dimethyl-5H-pyrrolo[3,4-d]pyrimidine-6(7H)-carboxamide], 6.13; for `COC(=O)N1CC[C@H](Nc2ncc3c(n2)CN(C(=O)N[C@H](CO)c2ccccc2)C3(C)C)C1` [compound 65, (S)-methyl 3-((6-(((S)-2-hydroxy-1-phenylethyl)carbamoyl)-5,5-dimethyl-6,7-dihydro-5H-pyrrolo[3,4-d]pyrimidin-2-yl)amino)pyrrolidine-1-carboxylate], 5.05.
For `COC(=O)N1CC[C@@H](Nc2ncc3c(n2)CN(C(=O)N[C@H](CO)c2ccccc2)C3(C)C)C1` [compound 66, (R)-methyl 3-((6-(((S)-2-hydroxy-1-phenylethyl)carbamoyl)-5,5-dimethyl-6,7-dihydro-5H-pyrrolo[3,4-d]pyrimidin-2-yl)amino)pyrrolidine-1-carboxylate], the negative logarithm of the IC50 (pIC50) is 7.52.
Turning to `CO[C@H]1CC[C@H](Nc2ncc3c(n2)CN(C(=O)N[C@H](CO)c2ccccc2)C3(C)C)CC1` [compound 67, N-((S)-2-hydroxy-1-phenylethyl)-2-(((1r,4S)-4-methoxycyclohexyl)amino)-5,5-dimethyl-5H-pyrrolo[3,4-d]pyrimidine-6(7H)-carboxamide], the pIC50 is 7.17.
Regarding `CC(=O)N1CC2C(C1)C2Nc1ncc2c(n1)CN(C(=O)N[C@H](CO)c1ccccc1)C2(C)C` (stereo partly drawn) [compound 68, 2-((3-acetyl-3-azabicyclo[3.1.0]hexan-6-yl)amino)-N-((S)-2-hydroxy-1-phenylethyl)-5,5-dimethyl-5H-pyrrolo[3,4-d]pyrimidine-6(7H)-carboxamide], the pIC50 is 6.35.
As for `CC(=O)N1CC(Nc2ncc3c(n2)CN(C(=O)N[C@H](CO)c2ccccc2)C3(C)C)C1` [compound 69, (S)-2-((1-acetylazetidin-3-yl)amino)-N-(2-hydroxy-1-phenylethyl)-5,5-dimethyl-5H-pyrrolo[3,4-d]pyrimidine-6(7H)-carboxamide], the negative logarithm of the IC50 (pIC50) was 5.25.
As for `CC1(C)c2cnc(NC3CCS(=O)(=O)C3)nc2CN1C(=O)N[C@H](CO)c1ccccc1` (stereo partly drawn) [compound 70, 2-((1,1-dioxidotetrahydrothiophen-3-yl)amino)-N-((S)-2-hydroxy-1-phenylethyl)-5,5-dimethyl-5H-pyrrolo[3,4-d]pyrimidine-6(7H)-carboxamide], the pIC50 is 6.03.
Take `Cn1ccc(Nc2ncc3c(n2)CN(C(=O)N[C@H](CO)c2ccccc2)C3(C)C)n1` [compound 71, (S)-N-(2-hydroxy-1-phenylethyl)-5,5-dimethyl-2-((1-methyl-1H-pyrazol-3-yl)amino)-5H-pyrrolo[3,4-d]pyrimidine-6(7H)-carboxamide]: the pIC50 was 5.59.
`CC1(C)c2cnc(NCC3CCCCO3)nc2CN1C(=O)N[C@H](CO)c1ccccc1` (stereo partly drawn) [compound 72, N-((S)-2-hydroxy-1-phenylethyl)-5,5-dimethyl-2-(((tetrahydro-2H-pyran-2-yl)methyl)amino)-5H-pyrrolo[3,4-d]pyrimidine-6(7H)-carboxamide]: the pIC50 is 5.27.
For the compound `CC(Nc1ncc2c(n1)CN(C(=O)N[C@H](CO)c1ccccc1)C2(C)C)C1CCCO1` (stereo partly drawn) [compound 73, N-((S)-2-hydroxy-1-phenylethyl)-5,5-dimethyl-2-((1-(tetrahydrofuran-2-yl)ethyl)amino)-5H-pyrrolo[3,4-d]pyrimidine-6(7H)-carboxamide], the negative-log IC50 (pIC50) is 6.50.
For `CC(C)Nc1ncc2c(n1)CN(C(=O)N[C@H](CO)c1ccccc1)C2(C)C` [compound 74, (S)-N-(2-hydroxy-1-phenylethyl)-2-(isopropylamino)-5,5-dimethyl-5H-pyrrolo[3,4-d]pyrimidine-6(7H)-carboxamide] the value was 6.91.
For `CC1(C)c2cnc(NCC3CCCO3)nc2CN1C(=O)N[C@H](CO)c1ccccc1` (stereo partly drawn) [compound 75, N-((S)-2-hydroxy-1-phenylethyl)-5,5-dimethyl-2-(((tetrahydrofuran-2-yl)methyl)amino)-5H-pyrrolo[3,4-d]pyrimidine-6(7H)-carboxamide] the value was 5.58.
Consider `O=C(NCc1ccc(Cl)cc1)N1Cc2nc(NC3CCOCC3)ncc2C12CCC2` [compound 76, N-(4-chlorobenzyl)-2′-((tetrahydro-2H-pyran-4-yl)amino)spiro[cyclobutane-1,5′-pyrrolo[3,4-d]pyrimidine]-6′(7′H)-carboxamide], for which the negative-log IC50 (pIC50) is 7.51.
For `O=C(N[C@H](CO)c1ccccc1)N1Cc2nc(NC3CCOCC3)ncc2C12CCC2` [compound 77, (S)-N-(2-hydroxy-1-phenylethyl)-2′-((tetrahydro-2H-pyran-4-yl)amino)spiro[cyclobutane-1,5′-pyrrolo[3,4-d]pyrimidine]-6′(7′H)-carboxamide], the pIC50 is 7.89.
Take `CCC1(C)c2cnc(NC3CCOCC3)nc2CN1C(=O)NCc1ccc(Cl)cc1` (centres unmarked) [compound 78, N-(4-chlorobenzyl)-5-ethyl-5-methyl-2-((tetrahydro-2H-pyran-4-yl)amino)-5H-pyrrolo[3,4-d]pyrimidine-6(7H)-carboxamide]: the negative logarithm of the IC50 (pIC50) was 7.66.
Take `CC[C@@]1(C)c2cnc(NC3CCOCC3)nc2CN1C(=O)N[C@H](CO)c1ccccc1` [compound 79, (S)-5-ethyl-N-((S)-2-hydroxy-1-phenylethyl)-5-methyl-2-((tetrahydro-2H-pyran-4-yl)amino)-5H-pyrrolo[3,4-d]pyrimidine-6(7H)-carboxamide]: the pIC50 is 6.01.
Take `CC[C@]1(C)c2cnc(NC3CCOCC3)nc2CN1C(=O)N[C@H](CO)c1ccccc1` [compound 80, (R)-5-ethyl-N-((S)-2-hydroxy-1-phenylethyl)-5-methyl-2-((tetrahydro-2H-pyran-4-yl)amino)-5H-pyrrolo[3,4-d]pyrimidine-6(7H)-carboxamide]: the pIC50 is 7.66.
As for `CC1(C)c2cnc(N[C@H]3CC[C@H](C#N)CC3)nc2CN1C(=O)N[C@H](CO)c1ccccc1` [compound 81, 2-(((1r,4S)-4-cyanocyclohexyl)amino)-N-((S)-2-hydroxy-1-phenylethyl)-5,5-dimethyl-5H-pyrrolo[3,4-d]pyrimidine-6(7H)-carboxamide], the pIC50 is 6.94.
Consider `CN1CCC(Nc2ncc3c(n2)CN(C(=O)N[C@H](CO)c2ccccc2)C3(C)C)CC1=O` (stereo partly drawn) [compound 82, N-((S)-2-hydroxy-1-phenylethyl)-5,5-dimethyl-2-((1-methyl-2-oxopiperidin-4-yl)amino)-5H-pyrrolo[3,4-d]pyrimidine-6(7H)-carboxamide], for which the negative logarithm of the IC50 (pIC50) is 6.68.
For `CN1CCC(Nc2ncc3c(n2)CN(C(=O)N[C@H](CO)c2ccccc2)C3(C)C)CC1=O` (stereo partly drawn) [compound 83, N-((S)-2-hydroxy-1-phenylethyl)-5,5-dimethyl-2-((1-methyl-2-oxopiperidin-4-yl)amino)-5H-pyrrolo[3,4-d]pyrimidine-6(7H)-carboxamide] the value was 5.94; for `CN1CC(Nc2ncc3c(n2)CN(C(=O)N[C@H](CO)c2ccccc2)C3(C)C)CCC1=O` (stereo partly drawn) [compound 84, N-((S)-2-hydroxy-1-phenylethyl)-5,5-dimethyl-2-((1-methyl-6-oxopiperidin-3-yl)amino)-5H-pyrrolo[3,4-d]pyrimidine-6(7H)-carboxamide], 6.79.
On to `CC1(C)c2cnc(NC3CCC(=O)NC3)nc2CN1C(=O)N[C@H](CO)c1ccccc1` (stereo partly drawn) [compound 85, N-((S)-2-hydroxy-1-phenylethyl)-5,5-dimethyl-2-((6-oxopiperidin-3-yl)amino)-5H-pyrrolo[3,4-d]pyrimidine-6(7H)-carboxamide], for which the pIC50 is 7.28.

These data come from US9546173B2 (Novartis AG, priority 2012, dated 2017).
